The source of these data is patent US5644059A, “1,4-dihydropyridine derivatives and methods of producing the same” (Fujirebio Inc., priority 1990, dated 1997).

For the assay, the system named is platelet aggregation. Kind of assay: Test for platelet aggregation-inhibiting activity of rabbit (PAF-induced aggregation in platelet rich plasma). The following applies: rabbit PRP, 37°C, 10 minutes incubation, aggregation by PAF (10 μl); test compound concentration not given. In kind it is cell-based. Further details: dose or concentration left out as unconfirmed. As for the experimental part:
2. Test for platelet aggregation-inhibiting activity of rabit
A blood of a rabbit (Japanese white; male; 2.5-3.0 kg) was exsanguinated from a carotid of the rabbit, and nine parts of the blood were mixed with one part of a 3.8% aqueous solution of sodium citrate. The mixture was centrifuged at 1100 rpm at 20°C. for 15 minutes. The upper layer is a platelet rich plasma (PRP), and the lower layer was centrifuged at 2500 rpm at 20° C. for 10 minutes, so that a platelet poor plasma (PPP) was obtained.
10 μl of a solution of the compound to be tested was added to 200 μl of PRP, and the mixture was subjected to incubation at 37°C. for 10 minutes. To the mixture was added 10 μl of a platelet activating factor (PAF)(10 mg/ml). The agglutination was measured by Agricometer (NKK, PAT-4A).
For `COC(=O)C1=C(C)NC(C)=C(C(=O)NCC(=O)N[C@H](C(=O)OC(C)(C)C)C(C)C)C1c1cccc([N+](=O)[O-])c1` (stereo partly drawn) [Example 66, t-butyl 2-(S)-[N-[[N-[1,4-dihydro-2,6-dimethyl-5-methoxycarbonyl-4-(3-nitrophenyl)pyridine-3-carbonyl]amino]acetyl]amino]-3-methylbutylate], the “Platelet Aggregation-Inhibiting Activity” value is given as 100%.

As to `CCOC(=O)C1(NC(=O)C2=C(C)NC(C)=C(C(=O)OC)C2c2cccc([N+](=O)[O-])c2)CCCCC1` (centres unmarked) [Example 67, ethyl 1-[N-[1,4-dihydro-2,6-dimethyl-5-methoxycarbonyl-4-(3-nitrophenyl)pyridine-3-carbonyl]amino]cyclohexanecarboxylate], the “Platelet Aggregation-Inhibiting Activity” value came to 33.8%.

Take `CCOC(=O)C(C)(C)NC(=O)C1=C(C)NC(C)=C(C(=O)OC)C1c1cccc([N+](=O)[O-])c1` (centres unmarked) [Example 68, ethyl 2-[N-[1,4-dihydro-2,6-dimethyl-5-methoxycarbonyl-4-(3-nitrophenyl)pyridine-3-carbonyl]amino]isobutyrate]: the “Platelet Aggregation-Inhibiting Activity” value turned out to be 34.1%.

Take `CCOC(=O)c1ccccc1NC(=O)C1=C(C)NC(C)=C(C(=O)OC)C1c1cccc([N+](=O)[O-])c1` (centres unmarked) [Example 69, ethyl 2-[N-[1,4-dihydro-2,6-dimethy1-5-methoxycarbonyl-4-(3-nitrophenyl)pyridine-3-carbonyl]amino]-benzoate]: the “Platelet Aggregation-Inhibiting Activity” value was 23.3%.

On to `CCOC(=O)c1nccnc1NC(=O)C1=C(C)NC(C)=C(C(=O)OC)C1c1cccc([N+](=O)[O-])c1` (centres unmarked) [Example 70, ethyl 3-[N-[1,4-dihydro-2,6-dimethyl-5-methoxycarbonyl-4-(3-nitrophenyl)pyridine-3-carbonyl]amino]pyrazine-2-carboxylate], for which the “Platelet Aggregation-Inhibiting Activity” value was 27.1%.

Consider `COC(=O)C1=C(C)NC(c2ccccc2)=C(C(=O)N[C@H](C(=O)OC(C)(C)C)C(C)C)C1c1cccc([N+](=O)[O-])c1` (some centres unmarked) [Example 71, t-butyl 2-[N-[1,4-dihydro-6-methyl-5-methoxycarbonyl-4-(3-nitrophenyl)-2-phenylpyridine-3-carbonyl]amino]-3-methylbutylate], for which the “Platelet Aggregation-Inhibiting Activity” value is reported as 100%.

For the compound `CCOC(=O)C1=C(c2ccccc2)NC(C)=C(C(=O)NCC(=O)OC(C)(C)C)C1c1cccc([N+](=O)[O-])c1` (centres unmarked) [Example 76], the “Platelet Aggregation-Inhibiting Activity” value is given as 46.3%.

Turning to `COC(=O)C1=C(C)NC(C)=C(C(=O)NCC(=O)OC(C)(C)C)[C@@H]1c1cccc([N+](=O)[O-])c1` [Example 79, (+)-t-butyl (S)-[2-[N-[1,4-dihydro-2,6-dimethyl-5-methoxycarbonyl-4-(3-nitrophenyl)pyridin-3-yl]-carbonyl]amino]acetate], the “Platelet Aggregation-Inhibiting Activity” value is 100%.
